This assay relates to WT ELIC. The assay is described as follows: Fluorescence stopped-flow liposomal Tl+ flux assay, symmetric liposomes. The format is biochemical, Erwinia chrysanthemi. The method, then: The fluorescence sequential-mixing stopped-flow liposomal flux measurements were carried using an SX20 stopped-flow spectrofluorometer (Applied Photophysics) and Pro-Data SX software[13],[30]. 7.5 mg of the respective lipid mixture (POPC, 1:1 POPC: POPE, 1:1 POPC:POPG, 3:1 POPC:POPE, 3:1 POPC:POPG, 2:1:1 POPC:POPE:POPG) was dried in a glass vial to a thin film under a constant stream of N2. The lipids were then further dried under vacuum in a desiccator overnight. The following day the lipids were hydrated in 500 µl of reconstitution buffer (100 mM NaNO3, 10 mM HEPES, pH 7) (Buffer R), 250 µl of 75 mM 8-Aminonaphthalene-1,3,6-Trisulfonic Acid (ANTS, ThermoFisher Scientific) in buffer R, and doped with ~18 mg of CHAPS (Anatrace). The mixture was vortexed and then sonicated with heat until completely solubilized. Following the sonication, the solution was brought to RT then 3.5 µl of 6.7 mg/ml ELIC in Buffer A with 0.02% DDM was added (3 µg per mg of lipid). This combined solution was incubated at RT for 30 min, followed by the addition of 1 ml of 1:1 v/v SM-2 BioBeads in Buffer R and an additional 250 µl of 75 mM ANTS in Buffer R. This mixture was incubated at RT for 2.5 hr with gentle mixing. The liposome suspension was then extruded with an Avanti mini-extruder and 0.1 µm membrane (30×). The extruded liposomes were stored at 13 °C overnight with gentle rotation. The next day, the liposomes were diluted to 2.5 mL using assay buffer (140 mM NaNO3, 10 mM HEPES, pH 7) (Stopped-flow Buffer A), loaded into a PD-10 desalting column (Cytiva), eluted with 3 mL of Stopped-flow Buffer A and subsequently diluted 5-fold with Stopped-flow Buffer A.
Using propylamine as the agonist, the assay and analysis was carried out as previously described[13],[30]. ELIC-containing liposomes were first mixed 1:1 with Buffer A containing 2× the concentration of propylamine. After a variable delay of 10 ms to 25 s, the sample was then mixed 1:1 with a quenching buffer (90 mM NaNO3, 50 mM TlNO3, 10 mM HEPES, pH 7), and ANTS fluorescence (ex. 360 nm, fluorescence above 420 nm) was recorded for 1 s. For each delay time, 5 repeat measurements were obtained. The data were collected using Applied Photophysics Pro-Data SX software. The fluorescence quenching traces were fit to a stretched exponential (Eq. 2a) and the rate of Tl^+ influx was determined at 2 ms (Eq. 2b).2a Ft=F∞+F0−F∞⋅e^−t/τ^β 2b kt=β/τ⋅2ms/τ^(β−1) where Ft, F∞, F0 are the fluorescence at time t, final fluorescence and initial fluorescence. τ is the time constant, β the stretched exponential factor, and kt the calculated rate of Tl^+ influx at 2 ms. The time course of desensitization was also fit to a double exponential and a weighted time constant was calculated as was done for the patch-clamp data using Origin 2019b. All replicates were taken from independent samples.

Consider `CCCCCCCC/C=C\CCCCCCCC(=O)OC(COC(=O)CCCCCCCCCCCCCCC)COP(=O)(O)OCC(O)CO` (stereo not drawn) [POPG, 1-palmitoyl-2-oleoyl-phosphatidylglycerol], for which the “time constant of desensitization” value reads like this: (25% POPG in symmetric liposomes) ~ 6 s; (50% POPG in symmetric liposomes) ~ 12 s. Moreover, for the setting “25–50 mol% in binary mixtures with POPC, 10 mM propylamine”, the effect on desensitization entry is listed as “slowed desensitization”.

Values taken from paper PMC9668969 (Nature Communications, 2022).
